Data on 1 compound can be found in US20030134779A1, “Method and composition for treatment and/or prevention of antibiotic-resistant microorganism infections” (priority 2002, published 2003).

Common to all, as to type: cell-based, Staphylococcus aureus
One test has as its system S. aureus strains. As to the kind of experiment: Disk diffusion susceptibility test and cefinase test. The following applies: β-lactamase producing strains. Here is the method: For quality control, disk diffusion susceptibility tests, as recommended by the National Committee for Clinical Laboratory Standard, were performed on all strains using standard disk of various antibiotics. After 18 h of incubation at 37° C., the diameter of the zone of complete inhibition of bacterial growth around each disk was measured. Isolates were categorized as sensitive or resistant for a given antibiotic using the recommended interpretative guidelines of the manufacturer.

Test [1] deals with S. aureus strains SHY97-4242 and RFT-5. Nature of the test: Bacterial growth in MHB. Here is the method:
(§1) The effect of LF or LFC at concentration sub-MICs alone or in combination with sub-MICs of antibiotics on bacterial growth rate of S. aureus, E. coli and K. pneumoniae was determined by monitoring bacterial cultures in MHB with the O.D.600 nm or by the count of colony forming unit per ml (cfu/ml). A volume of 2.5 ml of overnight cultures in MHB adjusted to 0.5-1 McFarland standard in saline were used to inoculate a final volume of 25 ml of fresh MHB containing the desired concentration of tested compounds. All flasks were then incubated at 37° C. with agitation (200 rpm) for 9 h. Aliquots were removed every hour to determine the culture turbidity using the spectrophotometer Philips PU 8800 (Pye Unican Ltd, Cambridge, UK). The combined antibiotic effect on bacterial growth was also determined using concentrations of LF in the presence of different concentrations of antibiotics. Briefly, a volume of 3 ml of fresh MHB containing desired concentration of drugs was adjusted to an optical density of 0.4 at 540 nm after an overnight culture. The culture was then incubated at 37° C with agitation (200 rpm). After incubation, aliquots were removed to determine the culture turbidity (OD540nm) or cfu/ml. To determine the influence of the level of iron on of the growth inhibition by the test compound, 5 μM of FeCl3 were added to the media.

In test [2] the test system is S. aureus ATCC 25923. As to the kind of experiment: Bacterial growth in MHB. How it is done:
as §1

The next test deals with S. aureus PC-1. As to the kind of experiment: Bacterial growth in MHB. How it is done: as §1
Test [3] deals with S. aureus ATCC 25923. As to the kind of experiment: Cell morphology by transmission electron microscopy. Here is the method: Bacterial cells were grown overnight on MHA or MHB containing sub-MICs of penicillin G with or without LF or LFC. Microorganisms were prepared for transmission electron microscopy by fixation with glutaraldehyde followed by ferritin labelling. This method allows good- preservation of capsular material. Briefly, bacterial cells grown in the presence or absence of antibiotics were fixed in cacodylate buffer (0.1 M, pH 7.0) containing 5% (v/v) glutaraldehyde, for 2 h at 20° C. Fixed microorganims were suspended in cacodylate buffer and allowed to react with the polycationic ferritin (Sigma Chemicals, St-Louis, Mo.; final concentration 1.0 mg/ml) for 30 min at 20° C. The reaction was slowed down by 10-fold dilution with buffer, and the microorganisms were centrifuged and washed three times in cacodylate buffer. Bacterial cells were then immobilized in 4% (w/v) agar, washed 5 times in cacodylate buffer and post-fixed with 2% (w/v) osmium tetroxide for 2 h. Washings were repeated as above, and the samples dehydrated in a graded series of acetone washes. Samples were then washed twice in propylene oxide and embedded in Spurr low-viscosity resin. Thin sections were post-stained with uranyl acetate and lead citrate and examined with an electron microscope (Philips 201) at an accelerating voltage of 60 kV.

[4] abbreviates: sub-MIC penicillin G (1/4 to 1/16 MIC) with 1 mg/ml LF, P<0.01.

The structures appear in SMILES notation.

In the case of `CC1(C)S[C@@H]2[C@H](NC(=O)Cc3ccccc3)C(=O)N2[C@H]1C(=O)O` [penicillin G, Penicillin G], the “susceptibility by standard disk diffusion and cefinase test” value in the test with S. aureus strains was “resistance”. Besides, the “effect of addition of iron on growth inhibition” value in test [1] (combination of penicillin to LF) was “did not affect”. Besides, in test [1] (in the presence of LF, P<0.01), the “growth inhibitory activity of penicillin” value is listed as “enhanced”. Further, the growth entry was “reduced the growth” in test [1] (penicillin G alone, P<0.001); “Complete growth inhibition” in the test with S. aureus ATCC 25923 [2] (penicillin G combined with 32 μg/ml LFC (⅛ MIC)); “Complete growth inhibition” in the test with S. aureus PC-1 (penicillin G combined with 64 μg/ml LFC (⅛ MIC)). Further, the growth rate result in the test on S. aureus ATCC 25923 [2] (setting [4]) was “important growth rate reductions”; in the test on S. aureus PC-1 (sub-MIC of penicillin G alone), “did not significantly affect growth rate”; with S. aureus PC-1 (setting [4]) it was “important growth rate reductions”. The cell morphology result with S. aureus ATCC 25923 [3] (penicillin G 0.0078 μg/ml alone, 18-h) is reported as “induced formation of large symmetrically arranged pseudomulticellular staphylococci”; in the test with S. aureus ATCC 25923 [3] (penicillin G 0.0078 μg/ml with LF 9.1 μg/ml), “asymmetrically arranged pseudomulticellular staphylococci were formed”.
